For orientation: EC50 means the concentration at which the effect is half-maximal. A high value points to a less potent agent.

Molecules are shown by their SMILES.

For eleven compounds, EC50 results are on record in US20200055839A1 (priority 2017, published 2020).

This test relates to NL-RLuc virus. The test is described as follows: Inhibition of HIV replication (NL-RLuc virus, luciferase readout in MT-2 cells). The class given is cell-based. The conditions noted are these: Human immunodeficiency virus 1, MT2, 120 h, MT-2 cells infected with NL-RLuc virus, 5 days of incubation, 10% FBS, at least 2 experiments. The source says:
Inhibition of HIV Replication:
A recombinant NL-RLuc proviral clone was constructed in which a section of the nef gene form NL4-3 was replaced with the Renilla Luciferase gene. This virus is fully infectious and can undergo multiple cycles of replication in cell culture. In addition, the luciferous reporter provides a simple and easy method for quantitating the extent of virus growth and consequently, the antiviral activity of test compounds. The plasmid pNLRLuc contains the proviral NL-Rluc DNA cloned into pUC18 at the PvuII site. The NL-RLuc virus was prepared by transfection of 293T cells with the plasmid pNLRLuc. Transfections were performed using the LipofectAMINE PLUS kit form Invitrogen (Carlsbad, Calif.) according to the manufacturer and the virus generated was titered in MT-2 cells. For susceptibility analyses, the titrated virus was used to infect MT-2 cells in the presence of compound, and after 5 days of incubation, cells were processed and quantitated for virus growth by the amount of expressed luciferase. Assay media was RPMI 1640 supplemented with 10% heat inactivated fetal bovine serum (FBS), 100 units/ml penicillin G/100 units/ml streptomycin, 10 mM HEPES buffer pH 7.55 and 2 mM L-glutamine. The results form at least 2 experiments were used to calculate the EC50 values. Luciferase was quantitated using the Dual Luciferase kit form Promega (Madison, Wis.). Susceptibility of viruses to compounds was determined by incubation in the presence of serial dilutions of the compound. The 50% effective concentration (EC50) was calculated by using the exponential form of the median effect equation where (Fa)=1/[1+(ED50/drug conc.)^m](Johnson V A, Byington R T. Infectivity Assay. In Techniques in HIV Research. ed. Aldovini A, Walker B D. 71-76. New York: Stockton Press. 1990).

`Cc1ncc(-c2ccc(C(F)(F)CC(C)C)cn2)c(N2CCC(C)(C)CC2)c1[C@H](OC(C)(C)C)C(=O)O` [Example 274, (S)-2-(tert-Butoxy)-2-(5-(1,1-difluoro-3-methylbutyl)-4′-(4,4-dimethylpiperidin-1-yl)-6′-methyl-[2, 3′-bipyridin]-5′-yl)acetic acid] returned a half-maximal effective concentration (EC50) of 16 nM. That is a double-digit nanomolar value.
Turning to `Cc1nc(CO)c(-c2ccc(OCCc3ccc(F)cc3)c(F)c2)c(N2CCC(C)(C)CC2)c1[C@H](OC(C)(C)C)C(=O)O` [Example 230, (S)-2-(tert-Butoxy)-2-(4-(4,4-dimethylpiperidin-1-yl)-5-(3-fluoro-4-(4-fluorophenethoxy)phenyl)-6-(hydroxymethyl)-2-methylpyridin-3-yl)acetic acid], the concentration for a half-maximal effect (EC50) worked out at 3 nM. Against the preceding compound, the EC50 is about 5.3-fold lower.
In the case of `Cc1ncc(-c2ccc(OCc3cccc(F)c3)cn2)c(N2CCC(C)(C)CC2)c1[C@H](OC(C)(C)C)C(=O)O` [Example 343, (2S)-2-(tert-butoxy)-2-[4′-(4,4-dimethylpiperidin-1-yl)-5-[(3-fluorophenyl)methoxy]-6′-methyl-[2,3′-bipyridine]-5′-yl]acetic acid] it was 2 nM.
Regarding `Cc1nc(NCc2ccn[nH]2)c(-c2ccc(OCCc3ccc(F)cc3)cc2)c(N2CCC(C)(C)CC2)c1[C@H](OC(C)(C)C)C(=O)O` [Example 30, (S)-2-(6-(((1H-Pyrazol-5-yl)methyl)amino)-4-(4,4-dimethylpiperidin-1-yl)-5-(4-(4-fluorophenethoxy)phenyl)-2-methylpyridin-3-yl)-2-(tert-butoxy)acetic acid], a half-maximal response (EC50) required 2 nM.
With `COc1cccc(-c2cnc(C)c([C@H](OC(C)(C)C)C(=O)O)c2N2CCC(C)(C)CC2)c1` [Example 168, (2S)-2-(tert-Butoxy)-2-[4-(4,4-dimethylpiperidin-1-yl)-5-(3-methoxyphenyl)-2-methylpyridin-3-yl]acetic acid], the midpoint of the response, the EC50, lay at 4 nM.
In turn, `Cc1ncc(-c2cc(F)c(OCCc3ccc(F)cc3)c(F)c2)c(N2CCC(C)(C)CC2)c1[C@H](OC(C)(C)C)C(=O)O` [Example 127, (S)-2-(tert-Butoxy)-2-(5-(3,5-difluoro-4-(4-fluorophenethoxy)phenyl)-4-(4,4-dimethylpiperidin-1-yl)-2-methylpyridin-3-yl)acetic acid] yielded a concentration giving a half-maximal response (EC50) of 4 nM.
For `Cc1ncc(-c2cnc(OCCC(C)(C)C)c(F)c2)c(N2CCC(C)(C)CC2)c1[C@H](OC(C)(C)C)C(=O)O` [Example 376, (2S)-2-(tert-butoxy)-2-[6′-(3,3-dimethylbutoxy)-4-(4,4-dimethylpiperidin-1-yl)-5′-fluoro-6-methyl-[3,3′-bipyridine]-5-yl]acetic acid], the EC50 is 5 nM.
Compound `Cc1nc(CN2CCC3(CCC3)CC2)c(-c2ccc(F)cc2)c(N2CCC(C)(C)CC2)c1[C@H](OC(C)(C)C)C(=O)O` [Example 191, (2S)-2-[6-({7-Azaspiro[3.5]nonan-7-yl}methyl)-4-(4,4-dimethylpiperidin-1-yl)-5-(4-fluorophenyl)-2-methylpyridin-3-yl]-2-(tert-butoxy)acetic acid] had an EC50 of 2 nM. This EC50 is about 2.5-fold lower than that of the compound before.
`Cc1cc(F)c(F)c(-c2cnc(C)c([C@H](OC(C)(C)C)C(=O)O)c2N2CCC(C)(C)CC2)c1` [Example 170, (2S)-2-(tert-Butoxy)-2-[5-(2,3-difluoro-5-methylphenyl)-4-(4,4-dimethylpiperidin-1-yl)-2-methylpyridin-3-yl]acetic acid] yielded an EC50 of 19 nM.
With `Cc1nc(OCCc2ccc(F)cc2)ccc1-c1cnc(C)c([C@H](OC(C)(C)C)C(=O)O)c1N1CCC(C)(C)CC1` [Example 260, (S)-2-(tert-Butoxy)-2-(4-(4,4-dimethylpiperidin-1-yl)-6′-(4-fluorophenethoxy)-2′,6-dimethyl-[3, 3′-bipyridin]-5-yl)acetic acid] the figure was 11 nM; with `Cc1ncc(-c2cc(F)ccc2F)c(N2CCC(C)(C)CC2)c1[C@H](OC(C)(C)C)C(=O)O` [Example 130, (2S)-2-(tert-Butoxy)-2-[5-(2,5-difluorophenyl)-4-(4,4-dimethylpiperidin-1-yl)-2-methylpyridin-3-yl]acetic acid], 13 nM.
